According to patent EP4799701A2, “PYRIMID-2-YL-PYRAZOLE COMPOUNDS AS IRAK INHIBITORS” (Rigel Pharmaceuticals, Inc., priority 2022, dated 2023):

How the values were obtained:
TLR7-induced TNF-α = assay: TNF-α in human monocyte-derived dendritic cells (gardiquimod); format: cell-based; settings: human primary dendritic cells (DC); result in words
Description: After 2 hours, the media including floating cells was carefully removed and 12 ml of fresh RPMI media (10% FBS) containing GM-CSF (100 ng/ml) and IL-4 (20 ng/ml) were added to the adherent monocytes.
The differentiated dendritic cells (DC) were harvested by centrifugation (1200 rpm/5 min).

[1] = Plasma protein binding, free drug comparison across species; format: in vitro ADME; settings: free drug in rat, dog, monkey and human proteins
Description: Brain and plasma drug binding were performed by equilibrium dialysis using the Rapid Equilibrium Dialysis (RED) device. Briefly, 300 µL of plasma or brain homogenate (1 brain /3 buffer) containing drug (5 µM) was equilibrated (4-18 h) against 500 µL of buffered saline. After incubation, the concentration of drug in plasma/brain homogenate and buffer was determined by LC-MS/MS.
Higher free drug in plasma and brain allow for more drug to interact with the target. [drawing 34]
From a free drug perspective compound I-1 was approximately 6-times more free than Comparision-1 in rat, dog, monkey and human proteins.

TLR4-induced IL-23 = assay: IL23-p19 ELISA, dendritic cells (PBMC-derived), LPS stimulated; format: cell-based; settings: human primary dendritic cells (DC); result in words
Description: Compound Screening Using DC Cells
• Human PBMC cells (All Cells, Cat No. PB002) • RPMI growth media containing 10% FBS • IFNγ (Peprotech, Cat No. 300-02) • GMCSF (Peprotech, Cat No. 300-03) and IL4 (Peprotech Cat No. 200-04) • White clear bottom 96 well plates (Fisher, Cat No. 07-200-587, Corning #3903) • LPS (Make 2.5 mg/ml Stock in PBS) from Sigma Aldrich (Cat No. L2018-5MG) • Cell Titer Glo reagent (Promega, Cat No. G7573) • Positive controls, IKK2VI inhibitor (Calbiochem, Cat No. 401483)
Human PBMC cells (400 million) obtained from the vendor were transferred into a T-175 flask containing 15 ml RPMI media (10% FBS) and incubate for 2 hours at 37 °C. […]
155 µl of the supernatant was harvested from each well carefully (without the tip touching the bottom of the well) and to the remaining 50 µl / well of the cell culture plate was added 50 µl of Cell Titer Glo reagent. The mixture was incubated for 1-2 minutes on a shaker and the plate was read for luminescence intensity to determine the compound cytotoxicity. […]
After 45 minutes, the plates were washed with TBST 4X and 100 ul / well Super Signal ELISA Pico Chemiluminescent Substrate from Pierce (3.5 ml A + 3.5 ml B + 3.5 ml MQ water) was added. The plates were shaken for 1-2 minutes then read on a plate reader. […]

TLR2- induced TNF-α = assay: TLR2-induced TNF-α in human primary dendritic cells; format: cell-based; settings: human primary dendritic cells (DC); result in words

more free than Comparision-1 [1]: approximately 6 times
SMILES: CCO[C@H]1CC[C@H](n2cc(NC(=O)c3csc(-c4cn[nH]c4)n3)c(-c3ncccn3)n2)CC1 [Compound I-1, N-(1-((1r,4r)-4-ethoxycyclohexyl)-3-(pyrimidin-2-yl)-1H-pyrazol-4-yl)-2-(1H-pyrazol-4-yl)thiazole-4-carboxamide]
TLR7- induced TNF-α production (TLR7-induced TNF-α): blocks
TLR4-induced IL-23 production (TLR4-induced IL-23): blocks
TLR2- induced TNF-α production (TLR2- induced TNF-α): blocks
